Experimental data published in ChEMBL document CHEMBL4837181 (Eur J Med Chem, 2020).

Key:
[1] = Dose normalized Cmax in rat at 10 mg/kg, po measured upto 72 hrs by LC-MS/MS analysis; type: ADME, organism-based; settings: in vivo
[2] = Dose normalized AUC (0 to infinity) in rat at 10 mg/kg, po measured upto 72 hrs by LC-MS/MS analysis; type: ADME, organism-based; settings: in vivo
[3] = Tmax in mouse at 287 micromol/kg administered as single dose; type: ADME; settings: in vivo, dose 287 µmol/kg
[4] = Half life in mouse at 143 micromol/kg administered as single dose; type: ADME; settings: in vivo, dose 143 µmol/kg
[5] = Half life in mouse at 287 micromol/kg administered as single dose; type: ADME; settings: in vivo, dose 287 µmol/kg
[6] = Half life in mouse at 573 micromol/kg administered as single dose; type: ADME; settings: in vivo, dose 573 µmol/kg
[7] = Half life in mouse at 1147 micromol/kg administered as single dose; type: ADME; settings: in vivo, dose 1147 µmol/kg
[8] = Cmax in male cynomolgus monkey at 15 mg/kg, iv measured on day 1; type: ADME, organism-based, Macaca fascicularis; parameters: route intravenous, dose 15 mg/kg; settings: in vivo
[9] = Cmax in female cynomolgus monkey at 15 mg/kg, iv measured on day 1; type: ADME, organism-based, Macaca fascicularis; parameters: route intravenous, dose 15 mg/kg; settings: in vivo
[10] = Cmax in female cynomolgus monkey at 75 mg/kg, po measured on day 1; type: ADME, organism-based, Macaca fascicularis; parameters: route oral, dose 75 mg/kg; settings: in vivo
[11] = Cmax in female cynomolgus monkey at 75 mg/kg, po BID measured on day 8; type: ADME, organism-based, Macaca fascicularis; parameters: route oral, dose 75 mg/kg; settings: in vivo
[12] = Cmax in male cynomolgus monkey at 75 mg/kg, po BID measured on day 8; type: ADME, organism-based, Macaca fascicularis; parameters: route oral, dose 75 mg/kg; settings: in vivo
[13] = Cmax in female cynomolgus monkey at 150 mg/kg, po measured on day 8; type: ADME, organism-based, Macaca fascicularis; parameters: route oral, dose 150 mg/kg; settings: in vivo
[14] = Cmax in male cynomolgus monkey at 150 mg/kg, po BID measured on day 8; type: ADME, organism-based, Macaca fascicularis; parameters: route oral, dose 150 mg/kg; settings: in vivo
[15] = Cmax in male cynomolgus monkey at 225 mg/kg, po measured on day 1; type: ADME, organism-based, Macaca fascicularis; parameters: route oral, dose 225 mg/kg; settings: in vivo
[16] = Cmax in female cynomolgus monkey at 375 mg/kg, po BID measured on day 8; type: ADME, organism-based, Macaca fascicularis; parameters: route oral, dose 375 mg/kg; settings: in vivo
[17] = Cmax in female cynomolgus monkey at 675 mg/kg, po measured on day 1; type: ADME, organism-based, Macaca fascicularis; parameters: route oral, dose 675 mg/kg; settings: in vivo
[18] = Cmax in male cynomolgus monkey at 675 mg/kg, po measured on day 1; type: ADME, organism-based, Macaca fascicularis; parameters: route oral, dose 675 mg/kg; settings: in vivo
[19] = Tmax in female cynomolgus monkey at 75 mg/kg, po measured on day 8; type: ADME, organism-based, Macaca fascicularis; settings: in vivo
[20] = Tmax in male cynomolgus monkey at 75 mg/kg, po BID measured on day 8; type: ADME, organism-based, Macaca fascicularis; settings: in vivo
[21] = Tmax in male cynomolgus monkey at 150 mg/kg, po BID measured on day 8; type: ADME, organism-based, Macaca fascicularis; settings: in vivo
[22] = Tmax in male cynomolgus monkey at 225 mg/kg, po measured on day 1; type: ADME, organism-based, Macaca fascicularis; settings: in vivo
[23] = Tmax in female cynomolgus monkey at 375 mg/kg, po BID measured on day 8; type: ADME, organism-based, Macaca fascicularis; settings: in vivo
[24] = Tmax in female cynomolgus monkey at 675 mg/kg, po measured on day 1; type: ADME, organism-based, Macaca fascicularis; settings: in vivo
[25] = Tmax in male cynomolgus monkey at 675 mg/kg, po measured on day 1; type: ADME, organism-based, Macaca fascicularis; settings: in vivo
[26] = AUC (0 to 24 hrs) in female cynomolgus monkey at 75 mg/kg, po measured on day 1; type: ADME, organism-based, Macaca fascicularis; parameters: time < 24 hr, route oral, dose 75 mg/kg; settings: in vivo
[27] = AUC (0 to 24 hrs) in female cynomolgus monkey at 150 mg/kg, po BID measured on day 8; type: ADME, organism-based, Macaca fascicularis; parameters: time < 24 hr, route oral, dose 150 mg/kg; settings: in vivo
[28] = Half life in female cynomolgus monkey at 150 mg/kg, po measured on day 8; type: ADME, organism-based, Macaca fascicularis; settings: in vivo
[29] = AUC (0 to 24 hrs) in male cynomolgus monkey at 150 mg/kg, po BID measured on day 8; type: ADME, organism-based, Macaca fascicularis; parameters: time < 24 hr, route oral, dose 150 mg/kg; settings: in vivo
[30] = Half life in male cynomolgus monkey at 150 mg/kg, po BID measured on day 8; type: ADME, organism-based, Macaca fascicularis; settings: in vivo
[31] = AUC (0 to 24 hrs) in male cynomolgus monkey at 225 mg/kg, po measured on day 1; type: ADME, organism-based, Macaca fascicularis; parameters: time < 24 hr, route oral, dose 225 mg/kg; settings: male, in vivo
[32] = AUC (0 to 24 hrs) in female cynomolgus monkey at 675 mg/kg, po measured on day 1; type: ADME, organism-based, Macaca fascicularis; parameters: time < 24 hr, route oral, dose 675 mg/kg; settings: in vivo
[33] = Half life in female cynomolgus monkey at 675 mg/kg, po measured on day 1; type: ADME, organism-based, Macaca fascicularis; settings: in vivo
[34] = AUC (0 to 24 hrs) in male cynomolgus monkey at 675 mg/kg, po measured on day 1; type: ADME, organism-based, Macaca fascicularis; parameters: time < 24 hr, route oral, dose 675 mg/kg; settings: in vivo
[35] = Half life in male cynomolgus monkey at 675 mg/kg, po measured on day 1; type: ADME, organism-based, Macaca fascicularis; settings: in vivo
[36] = Drug accumulation in rat at 100 to 900 mg/kg, po BID; type: ADME, organism-based; settings: in vivo, dose 100-900 mg/kg
[37] = Drug accumulation in monkey at 75 to 375 mg/kg, po BID; type: ADME, organism-based, Macaca mulatta; settings: rhesus monkey, in vivo, dose 75-375 mg/kg
[38] = AUC (0 to 12 hrs) in po BID dosed cynomolgus monkey administered for 28 days; type: ADME, organism-based, Macaca fascicularis; parameters: route oral, time 28 day; settings: in vivo
[39] = Change in normalised Cmax in rat at 10 mg/kg, po measured upto 72 hrs by LC-MS/MS analysis; type: ADME, organism-based; settings: in vivo
[40] = Change in normalised AUCinfinity in rat at 10 mg/kg, po measured upto 72 hrs by LC-MS/MS analysis; type: ADME, organism-based; settings: in vivo
[41] = Change in Cmax in rat at 37 umol/kg, po measured upto 72 hrs by LC-MS/MS analysis; type: ADME, organism-based; settings: in vivo, at 37 µmol/kg
[42] = Change in Cmax in rat at 185 umol/kg, po measured upto 72 hrs by LC-MS/MS analysis; type: ADME, organism-based; settings: in vivo, at 185 µmol/kg
[43] = Change in Cmax in rat at 500 umol/kg, po measured upto 72 hrs by LC-MS/MS analysis; type: ADME, organism-based; settings: in vivo, at 500 µmol/kg
[44] = Change in AUC (infinity) in rat at 37 umol/kg, po measured upto 72 hrs by LC-MS/MS analysis; type: ADME, organism-based; settings: in vivo, at 37 µmol/kg
[45] = Change in AUC(infinity) in rat at 500 umol/kg, po measured upto 72 hrs by LC-MS/MS analysis; type: ADME, organism-based; settings: in vivo, at 500 µmol/kg
[46] = Change in Cmax in cynomolgus monkey at 92 umol/kg, po measured after 0.083 to 48 hrs by LC-MS/MS analysis; type: ADME, organism-based, Macaca fascicularis; settings: in vivo, at 92 µmol/kg, time 0.083-48 hrs
[47] = Change in Cmax in cynomolgus monkey at 275 umol/kg, po measured after 0.083 to 48 hrs by LC-MS/MS analysis; type: ADME, organism-based, Macaca fascicularis; settings: in vivo, at 275 µmol/kg, time 0.083-48 hrs
[48] = Change in Cmax in cynomolgus monkey at 825 umol/kg, po measured after 0.083 to 48 hrs by LC-MS/MS analysis; type: ADME, organism-based, Macaca fascicularis; settings: in vivo, at 825 µmol/kg, time 0.083-48 hrs
[49] = Change in AUC(infinity) in cynomolgus monkey at 92 umol/kg, po measured after 0.083 to 48 hrs by LC-MS/MS analysis; type: ADME, organism-based, Macaca fascicularis; settings: in vivo, at 92 µmol/kg, time 0.083-48 hrs
[50] = Change in AUC(infinity) in cynomolgus monkey at 275 umol/kg, po measured after 0.083 to 48 hrs by LC-MS/MS analysis; type: ADME, organism-based, Macaca fascicularis; settings: in vivo, at 275 µmol/kg, time 0.083-48 hrs
[51] = Change in AUC(infinity) in cynomolgus monkey at 825 umol/kg, po measured after 0.083 to 48 hrs by LC-MS/MS analysis; type: ADME, organism-based, Macaca fascicularis; settings: in vivo, at 825 µmol/kg, time 0.083-48 hrs

Cn1cc(C[C@@H](N)C(=O)O)c2ccccc21 [INDOXIMOD]
Cmax/dose [1]: 17.3 µM | AUC/dose [2]: 508 µM·h | Tmax [3]: 0.6 h | half-life [4]: 3 h | half-life [5]: 2.8 h | half-life [6]: 3.1 h | half-life [7]: 3.4 h | Cmax [8]: 39.5 µM | Cmax [9]: 43.1 µM | Cmax [10]: 55 µM | Cmax [11]: 59.3 µM | Cmax [12]: 47.3 µM | Cmax [13]: 79 µM | Cmax [14]: 93.4 µM | Cmax [15]: 97.7 µM | Cmax [16]: 203 µM | Cmax [17]: 387 µM | Cmax [18]: 311 µM | Tmax [19]: 1 h | Tmax [20]: 1 h | Tmax [21]: 2 h | Tmax [22]: 2 h | Tmax [23]: 2.5 h | Tmax [24]: 2 h | Tmax [25]: 4 h | AUC(0-t) at 24 h [26]: 177 µM·h | AUC at 24 h [27]: 403 µM·h | half-life [28]: 2.7 h | AUC at 24 h [29]: 509 µM·h | half-life [30]: 2.8 h | AUC(0-t) at 24 h [31]: 525 µM·h | AUC [32]: 6450 µM·h | half-life [33]: 10.2 h | AUC [34]: 4470 µM·h | half-life [35]: 4.3 h | Drug metabolism [36]: Metabolite_Notdetected | Drug metabolism [37]: Metabolite_Notdetected | AUC at 672 h [38]: 320 µM·h | Activity [39]: 0% | Activity [40]: 0% | Activity [41]: 0% | Activity [42]: 0% | Activity [43]: 0% | Activity [44]: 0% | Activity [45]: 0% | Activity [46]: 0% | Activity [47]: 0% | Activity [48]: 0% | Activity [49]: 0% | Activity [50]: 0% | Activity [51]: 0%

CCOC(=O)[C@@H](Cc1cn(C)c2ccccc12)NC(=O)[C@@H](N)CC(C)C.Cl
Cmax/dose [1]: 16.2 µM | AUC/dose [2]: 888 µM·h | Tmax [3]: 0.5 h | half-life [4]: 2.9 h | half-life [5]: 2.2 h | half-life [6]: 3.1 h | half-life [7]: 3.2 h | Cmax [8]: 0.135 µM | Cmax [9]: 0.135 µM | Cmax [10]: 0.00846 µM | Cmax [11]: 0.00971 µM | Cmax [12]: 0.00774 µM | Cmax [13]: 0.0105 µM | Cmax [14]: 0.0171 µM | Cmax [15]: 0.0126 µM | Cmax [16]: 0.403 µM | Cmax [17]: 0.0759 µM | Cmax [18]: 0.148 µM | Tmax [19]: 2 h | Tmax [20]: 1 h | Tmax [21]: 2 h | Tmax [22]: 3 h | Tmax [23]: 2 h | Tmax [24]: 1 h | Tmax [25]: 2 h | AUC(0-t) at 24 h [26]: 0.0287 µM·h | AUC at 24 h [27]: 0.057 µM·h | half-life [28]: 3 h | AUC at 24 h [29]: 0.0806 µM·h | half-life [30]: 8.5 h | AUC(0-t) at 24 h [31]: 0.0602 µM·h | AUC [32]: 0.966 µM·h | half-life [33]: 9.7 h | AUC [34]: 0.966 µM·h | half-life [35]: 9.7 h | Drug metabolism [36]: Metabolite_Notdetected | Drug metabolism [37]: Metabolite_Notdetected | AUC at 672 h [38]: 320 µM·h | Activity [39]: 24% | Activity [40]: 75% | Activity [41]: 92% | Activity [42]: 112% | Activity [43]: 5% | Activity [44]: 70% | Activity [45]: 15% | Activity [46]: 518% | Activity [47]: 476% | Activity [48]: 230% | Activity [49]: 195% | Activity [50]: 518% | Activity [51]: 416%
